Source: patent publication US20260258050A1, “IMMUNOMODULATOR” (HITGEN INC., priority 2023, published 2026)

Assays:
Human IL-17AF = target: T1, Human IL-17AF (Homo sapiens, UniProt Q16552+Q96PD4); experiment: IL-17AF ELISA (competitive ELISA, IL-17AF/IL-17Ra receptor-ligand binding); conditions: human IL-17AF coated plate, human IL-17Ra, read-out: IC50, inhibitory activity of compounds on human IL-17AF
T1 construct: purchased Sino Biological Inc. CT047-H08H
T1 sequence (Q16552 24-155): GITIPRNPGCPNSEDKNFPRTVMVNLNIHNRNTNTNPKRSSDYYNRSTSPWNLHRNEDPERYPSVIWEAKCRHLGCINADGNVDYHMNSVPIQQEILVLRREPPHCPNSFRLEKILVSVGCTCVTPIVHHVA
T1 sequence (Q96PD4 31-163): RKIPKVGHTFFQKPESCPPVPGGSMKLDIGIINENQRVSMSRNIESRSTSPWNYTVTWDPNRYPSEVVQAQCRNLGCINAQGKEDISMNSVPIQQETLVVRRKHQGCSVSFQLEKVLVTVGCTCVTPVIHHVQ
Summary of the method: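 Plates coated with 0.625 μg/ml human IL-17AF in PBS pH 7.4 (37 °C, 30 min) and milk-blocked. Compounds pre-incubated with coated IL-17AF for 10 min at 25 °C, then IL-17Ra added (as 100 nM solution) for 30 min. Bound receptor detected by anti-Fc HRP/TMB at 450 nm; IC50 from variable-slope normalized fit versus DMSO control and blank.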

Human IL-17A = target: T2, Human IL-17A (Homo sapiens, UniProt Q16552); experiment: Inhibition of human IL-17A protein-induced GROα/CXCL1 production in HT-29 cells; type: cell-based; design: purchased R&D 317-ILB; host or cells: added exogenously to HT-29 cells; conditions: 30 ng/mL human IL-17A protein, 48 h, GROα in supernatant by ELISA kit, read-out: Inhibitory IC50 of compounds on HT-29 cell GROα/CXCL1
T2 sequence (Q16552 20-155 limits assumed): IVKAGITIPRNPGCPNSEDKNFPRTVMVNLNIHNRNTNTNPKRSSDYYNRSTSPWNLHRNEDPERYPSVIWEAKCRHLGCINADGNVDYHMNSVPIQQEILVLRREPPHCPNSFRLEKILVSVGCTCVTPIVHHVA
Summary of the method: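 Compound dilutions were preincubated 1 h at 37 °C with 30 ng/mL human IL-17A, then added to HT-29 cells (5×10^4/well) for 48 h at 37 °C. GROα in supernatant quantified by ELISA; IC50 for inhibition of its production. Positive control: IL-17A antibody at […].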

IC50 (Human IL-17AF)	IC50 (Human IL-17A)	SMILES
0.1 to 0.5 µM	0.1 to 0.5 µM	Cc1[nH]nc2c1-c1cc(F)c(NC(=O)[C@@H](NC(=O)c3ccnn3CC(C)(F)F)C(C3CC3)C3CC3)cc1COCC2 [compound 87]
0.1 to 0.5 µM	≤ 0.1 µM	Cc1[nH]nc2c1-c1cc(F)c(NC(=O)[C@@H](NC(=O)c3ccnn3CCC(F)(F)F)C(C3CC3)C3CC3)cc1COCC2 [compound 88]
0.1 to 0.5 µM	≤ 0.1 µM	[2H]C([2H])([2H])C([2H])(n1nccc1C(=O)N[C@H](C(=O)Nc1cc2c(cc1F)-c1c(n[nH]c1C)CCOC2)C(C1CC1)C1CC1)C([2H])([2H])[2H] [compound 89]
0.1 to 0.5 µM	0.1 to 0.5 µM	[2H]C([2H])([2H])C([2H])([2H])n1nccc1C(=O)N[C@H](C(=O)Nc1cc2c(cc1F)-c1c(n[nH]c1C)CCOC2)C(C1CC1)C1CC1 [compound 90]
0.1 to 0.5 µM	0.1 to 0.5 µM	Cc1[nH]nc2c1-c1cc(F)c(NC(=O)[C@@H](NC(=O)c3ccnn3CCOC(C)C)C(C3CC3)C3CC3)cc1COCC2 [compound 98]
0.1 to 0.5 µM	0.1 to 0.5 µM	COCC(COC)n1nccc1C(=O)N[C@H](C(=O)Nc1cc2c(cc1F)-c1c(n[nH]c1C)CCOC2)C(C1CC1)C1CC1 [compound 99]
≤ 0.1 µM	0.1 to 0.5 µM	CCOCCn1nccc1C(=O)N[C@H](C(=O)Nc1cc2c(cc1F)-c1c(n[nH]c1C)CCOC2)C(C1CC1)C1CC1 [compound 100]
≤ 0.1 µM	≤ 0.1 µM	Cc1[nH]nc2c1-c1cc(F)c(NC(=O)[C@@H](NC(=O)c3ccnn3C[C@@H]3C[C@H]3F)C(C3CC3)C3CC3)cc1COCC2 [compound 101]
0.1 to 0.5 µM	≤ 0.1 µM	Cc1[nH]nc2c1-c1cc(F)c(NC(=O)[C@@H](NC(=O)c3ccnn3CCOC3CC3)C(C3CC3)C3CC3)cc1COCC2 [compound 102]
0.1 to 0.5 µM	≤ 0.1 µM	Cc1[nH]nc2c1-c1cc(F)c(NC(=O)[C@@H](NC(=O)c3ccnn3CCOCC(F)(F)F)C(C3CC3)C3CC3)cc1COCC2 [compound 104]
0.1 to 0.5 µM	0.1 to 0.5 µM	Cc1[nH]nc2c1-c1cc(F)c(NC(=O)[C@@H](NC(=O)c3cnnn3CCOC(F)F)C(C3CC3)C3CC3)cc1COCC2 [compound 108]
0.1 to 0.5 µM	0.1 to 0.5 µM	Cc1[nH]nc2c1-c1cc(F)c(NC(=O)[C@@H](NC(=O)c3ccnn3CCOC(C)(C)C)C(C3CC3)C3CC3)cc1COCC2 [compound 113]
≤ 0.1 µM	0.1 to 0.5 µM	Cc1[nH]nc2c1-c1cc(F)c(NC(=O)[C@@H](NC(=O)c3ccnn3CC3(C#N)CC3)C(C3CC3)C3CC3)cc1COCC2 [compound 114]
0.1 to 0.5 µM	0.1 to 0.5 µM	Cc1[nH]nc2c1-c1cc(F)c(NC(=O)[C@@H](NC(=O)c3ccnn3CC3COC3)C(C3CC3)C3CC3)cc1COCC2 [compound 115]
0.1 to 0.5 µM	≤ 0.1 µM	Cc1[nH]nc2c1-c1cnc(NC(=O)[C@@H](NC(=O)c3ccnn3CCCF)C(C3CC3)C3CC3)cc1COCC2 [compound 124]
0.1 to 0.5 µM	0.1 to 0.5 µM	Cc1[nH]nc2c1-c1cc(F)c(NC(=O)[C@@H](NC(=O)c3ccnn3C(C)C)C(C3CC3)C3CC3)cc1CN(CC1CC1)CC2 [compound 166]
0.1 to 0.5 µM	≤ 0.1 µM	Cc1[nH]nc2c1-c1cc(F)c(NC(=O)[C@@H](NC(=O)c3ccnn3C(C)C)C(C3CC3)C3CC3)cc1CN(C1CCOCC1)C(=O)C2 [compound 167]
0.1 to 0.5 µM	≤ 0.1 µM	Cc1[nH]nc2c1-c1cc(F)c(NC(=O)[C@@H](NC(=O)c3ccnn3C(C)C)C(C3CC3)C3CC3)cc1CN(C1CCC(F)(F)CC1)C(=O)C2 [compound 168]
≤ 0.1 µM	≤ 0.1 µM	Cc1[nH]nc2c1-c1cc(F)c(NC(=O)[C@@H](NC(=O)c3ccnn3C(C)C)C(C3CC3)C3CC3)cc1CN(C1CC(F)(F)C1)C(=O)C2 [compound 169]
≤ 0.1 µM	≤ 0.1 µM	Cc1[nH]nc2c1-c1cc(F)c(NC(=O)[C@@H](NC(=O)c3ccnn3C(C)C)C(C3CC3)C3CC3)cc1CN(C1CCC1)C(=O)C2 [compound 170]
0.1 to 0.5 µM	≤ 0.1 µM	Cc1[nH]nc2c1-c1cc(F)c(NC(=O)[C@@H](NC(=O)c3ccnn3C(C)C)C(C3CC3)C3CC3)cc1CN(C1CCOCC1)CC2 [compound 174]
≤ 0.1 µM	≤ 0.1 µM	Cc1[nH]nc2c1-c1cc(F)c(NC(=O)[C@@H](NC(=O)c3ccnn3C(C)C)C(C3CC3)C3CC3)cc1CN(C1CC(F)(F)C1)CC2 [compound 176]

IC50 (Human IL-17AF)	IC50 (Human IL-17A)	SMILES
0.1 to 0.5 µM	0.1 to 0.5 µM	Cc1[nH]nc2c1-c1cnc(NC(=O)[C@@H](NC(=O)c3ccnn3C(C)C)C(C3CC3)C3CC3)cc1CN(Cc1ccccc1)C(=O)C2 [compound 182]
≤ 0.1 µM	≤ 0.1 µM	Cc1[nH]nc2c1-c1cnc(NC(=O)[C@@H](NC(=O)c3ccnn3C(C)C)C(C3CC3)C3CC3)cc1CN(C1CC1)C(=O)C2 [compound 191]
≤ 0.1 µM	≤ 0.1 µM	Cc1[nH]nc2c1-c1cnc(NC(=O)[C@@H](NC(=O)c3ccnn3C(C)C)C(C3CC3)C3CC3)cc1CN(CC(F)F)C(=O)C2 [compound 192]
≤ 0.1 µM	≤ 0.1 µM	Cc1[nH]nc2c1-c1cnc(NC(=O)[C@@H](NC(=O)c3ccnn3C(C)C)C(C3CC3)C3CC3)cc1CN(CC(C)(F)F)C(=O)C2 [compound 193]
0.1 to 0.5 µM	≤ 0.1 µM	Cc1[nH]nc2c1-c1cnc(NC(=O)[C@@H](NC(=O)c3ccnn3C(C)C)C(C3CC3)C3CC3)cc1CN(C1CC(F)(F)C1)C(=O)C2 [compound 194]
0.1 to 0.5 µM	≤ 0.1 µM	Cc1[nH]nc2c1-c1cnc(NC(=O)[C@@H](NC(=O)c3ccnn3C(C)C)C(C3CC3)C3CC3)cc1CN(C(C)C)C(=O)C2 [compound 195]
0.1 to 0.5 µM	0.1 to 0.5 µM	CC(=O)N1CCc2n[nH]c(C)c2-c2cnc(NC(=O)[C@@H](NC(=O)c3ccnn3C(C)C)C(C3CC3)C3CC3)cc2C1 [compound 196]
0.1 to 0.5 µM	≤ 0.1 µM	Cc1[nH]nc2c1-c1cnc(NC(=O)[C@@H](NC(=O)c3ccnn3C(C)C)C(C3CC3)C3CC3)cc1CN(C1CC1)CC2 [compound 198]
≤ 0.1 µM	≤ 0.1 µM	Cc1[nH]nc2c1-c1cnc(NC(=O)[C@@H](NC(=O)c3ccnn3C(C)C)C(C3CC3)C3CC3)cc1CN(CC(C)(F)F)CC2 [compound 199]
0.1 to 0.5 µM	0.1 to 0.5 µM	Cc1[nH]nc2c1-c1cnc(NC(=O)[C@@H](NC(=O)c3ccnn3C(C)C)C(C3CC3)C3CC3)cc1CN(C(C)C)CC2 [compound 200]
0.1 to 0.5 µM	≤ 0.1 µM	Cc1[nH]nc2c1-c1cnc(NC(=O)[C@@H](NC(=O)c3ccnn3C(C)C)C(C3CC3)C3CC3)cc1CN(C1CCC1)CC2 [compound 201]
0.1 to 0.5 µM	≤ 0.1 µM	Cc1[nH]nc2c1-c1cnc(NC(=O)[C@@H](NC(=O)c3ccnn3C(C)C)C(C3CC3)C3CC3)cc1CN(CC(F)F)CC2 [compound 202]
≤ 0.1 µM	≤ 0.1 µM	Cc1[nH]nc2c1-c1cnc(NC(=O)[C@@H](NC(=O)c3conc3C(C)C)C(C3CC3)C3CC3)cc1CN(C1CC1)CC2 [compound 214]
≤ 0.1 µM	≤ 0.1 µM	Cc1[nH]nc2c1-c1cnc(NC(=O)[C@@H](NC(=O)c3conc3C3CC3)C(C3CC3)C3CC3)cc1CN(C1CC1)CC2 [compound 215]
0.1 to 0.5 µM	≤ 0.1 µM	CCc1nocc1C(=O)N[C@H](C(=O)Nc1cc2c(cn1)-c1c(n[nH]c1C)CCN(C1CC1)C2)C(C1CC1)C1CC1 [compound 216]
≤ 0.1 µM	≤ 0.1 µM	CCn1nccc1C(=O)N[C@H](C(=O)Nc1cc2c(cn1)-c1c(n[nH]c1C)CCN(C1CC1)C2)C(C1CC1)C1CC1 [compound 217]
≤ 0.1 µM	≤ 0.1 µM	Cc1[nH]nc2c1-c1cc(F)c(NC(=O)[C@@H](NC(=O)c3ccnn3CCCF)C(C3CC3)C3CC3)cc1CN(C1CC1)CC2 [compound 218]
0.1 to 0.5 µM	≤ 0.1 µM	Cc1[nH]nc2c1-c1cc(F)c(NC(=O)[C@@H](NC(=O)/C(F)=C\C(C)C)C(C3CC3)C3CC3)cc1COCC2 [compound 229]
0.1 to 0.5 µM	≤ 0.1 µM	Cc1[nH]nc2c1-c1cc(F)c(NC(=O)[C@@H](NC(=O)/C(F)=C\C3CC3)C(C3CC3)C3CC3)cc1COCC2 [compound 230]
0.1 to 0.5 µM	0.1 to 0.5 µM	Cc1[nH]nc2c1-c1cnc(NC(=O)[C@@H](NC(=O)c3conc3C(C)C)C(C3CC3)C3CC3)cc1COCC2 [compound 234]
0.1 to 0.5 µM	0.1 to 0.5 µM	Cc1[nH]nc2c1-c1cnc(NC(=O)[C@@H](NC(=O)c3ccnn3CC(F)(F)F)C(C3CC3)C3CC3)cc1COCC2 [compound 236]
0.1 to 0.5 µM	0.1 to 0.5 µM	Cc1[nH]nc2c1-c1cnc(NC(=O)[C@@H](NC(=O)c3ccnn3C3CC3)C(C3CC3)C3CC3)cc1COCC2 [compound 237]
